Experimental data reported in paper PMC8058163 (Clinical pharmacology and therapeutics, 2020).
Several values for one entry are separate records, joined by “and”; a condition that tells them apart may be missing. Equal entries are not always repeated. Where two headings read alike, the source gives them in different places. One block for each compound: values may come before it.

How the values were obtained:
[1] = biological target: T1, OCT1 (Homo sapiens, UniProt O15245); test: Transporter inhibition assay, OCT1
T1 sequence (O15245 1-554): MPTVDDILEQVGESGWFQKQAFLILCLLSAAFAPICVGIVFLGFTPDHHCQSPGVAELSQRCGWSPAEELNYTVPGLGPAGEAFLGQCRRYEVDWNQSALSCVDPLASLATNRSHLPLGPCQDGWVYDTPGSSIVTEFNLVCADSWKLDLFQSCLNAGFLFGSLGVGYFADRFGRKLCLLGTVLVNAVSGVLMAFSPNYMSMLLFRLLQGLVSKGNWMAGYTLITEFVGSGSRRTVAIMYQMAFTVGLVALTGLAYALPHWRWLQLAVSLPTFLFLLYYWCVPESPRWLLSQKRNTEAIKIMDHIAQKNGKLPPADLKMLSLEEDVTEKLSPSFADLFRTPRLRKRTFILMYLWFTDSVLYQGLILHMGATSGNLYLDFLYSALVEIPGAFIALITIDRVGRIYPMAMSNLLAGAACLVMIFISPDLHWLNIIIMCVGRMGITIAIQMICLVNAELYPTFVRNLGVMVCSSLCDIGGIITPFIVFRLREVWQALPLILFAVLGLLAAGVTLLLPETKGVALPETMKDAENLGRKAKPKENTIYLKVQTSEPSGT

[2] = biological target: MATE2-K (Homo sapiens, UniProt Q86VL8); test: Transporter inhibition assay, MATE2-K; format: cell-based; details: isolated alkaloids, mean [95% CI], three technical replicates
[3] = Estimated berberine concentrations and parameters for the basic models; details: 29.8 mg berberine in a 1-gram capsule / 250 mL
[4] = biological target: T2, OAT1 (Homo sapiens, UniProt Q4U2R8); test: Transporter inhibition assay, OAT1; format: cell-based; details: cell line (HEK293 or MDCKII) stably expressing OAT1
T2 sequence (Q4U2R8 1-563): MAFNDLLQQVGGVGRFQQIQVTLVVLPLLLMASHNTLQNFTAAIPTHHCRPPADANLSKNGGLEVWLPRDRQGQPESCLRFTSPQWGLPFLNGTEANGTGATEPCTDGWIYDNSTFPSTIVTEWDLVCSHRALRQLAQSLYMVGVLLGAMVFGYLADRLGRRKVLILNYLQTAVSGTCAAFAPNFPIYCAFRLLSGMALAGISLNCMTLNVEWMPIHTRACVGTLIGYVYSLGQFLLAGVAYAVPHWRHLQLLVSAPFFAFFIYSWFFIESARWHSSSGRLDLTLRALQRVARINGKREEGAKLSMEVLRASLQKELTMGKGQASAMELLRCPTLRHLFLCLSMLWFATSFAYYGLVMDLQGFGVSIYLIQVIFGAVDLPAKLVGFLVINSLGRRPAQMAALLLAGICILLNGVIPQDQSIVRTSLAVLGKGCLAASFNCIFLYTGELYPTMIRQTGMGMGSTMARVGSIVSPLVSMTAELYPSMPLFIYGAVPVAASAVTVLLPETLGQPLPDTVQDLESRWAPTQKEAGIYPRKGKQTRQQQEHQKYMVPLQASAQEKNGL

[5] = system: all transporters tested; test: Transporter inhibition assays, summary over the panel; details: against all transporters tested

MATE2-K, sequence (Q86VL8 1-566 isoform Q86VL8-3): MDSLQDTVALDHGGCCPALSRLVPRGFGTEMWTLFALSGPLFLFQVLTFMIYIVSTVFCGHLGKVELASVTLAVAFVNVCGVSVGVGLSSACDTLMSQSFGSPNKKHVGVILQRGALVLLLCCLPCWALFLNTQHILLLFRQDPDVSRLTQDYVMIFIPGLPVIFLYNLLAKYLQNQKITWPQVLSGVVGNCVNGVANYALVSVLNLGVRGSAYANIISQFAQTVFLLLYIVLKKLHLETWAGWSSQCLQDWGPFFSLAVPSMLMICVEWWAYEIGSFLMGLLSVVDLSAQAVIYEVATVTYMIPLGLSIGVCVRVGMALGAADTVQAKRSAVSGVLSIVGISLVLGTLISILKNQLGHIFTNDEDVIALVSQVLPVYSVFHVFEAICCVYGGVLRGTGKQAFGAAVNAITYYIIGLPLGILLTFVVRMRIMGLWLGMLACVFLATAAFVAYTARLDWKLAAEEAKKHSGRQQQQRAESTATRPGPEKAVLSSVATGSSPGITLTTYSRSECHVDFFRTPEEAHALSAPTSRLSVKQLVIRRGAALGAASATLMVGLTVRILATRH

IC50 [1]: 19 µM
IC50 [2]: < 1000 nM and 770 nM
estimated concentration in the gut (Igut) [3]: ~ 350 μM
Compound: COc1ccc2cc3[n+](cc2c1OC)CCc1cc2c(cc1-3)OCO2 [Berberine, berberine chloride]

Compound: COc1ccc2c(c1OC)C(=O)O[C@@H]2[C@H]1c2cc3c(cc2CCN1C)OCO3 [(−)-β-Hydrastine, (1R,9S)-(−)-β-Hydrastine]
IC50 ([1]; OCT1, isolated alkaloids, mean [95% CI], three technical replicates): 6.6 µM

Compound: CN1CCc2cc3c(cc2C1O)OCO3 (stereo not drawn) [Hydrastinine, hydrastinine chloride monohydrate]
inhibition at 100 μM [4]: < 20%
IC50 [5]: ≥ 80 µM
